Reference: patent US7452688B2, “Transformed cell with enhanced sensitivity to antifungal compound and use thereof” (Sumitomo Chemical Company, Limited, priority 2002, dated 2008)

Assays:
Format in all cases: cell-based, Saccharomyces cerevisiae
[1] = system: transformed budding yeast TM182-HIK1; assay: Antifungal compound sensitivity test of transformed budding yeast TM182-HIK1 (Example 9); settings: 30° C. 27 hours; for Degree of growth of budding yeast (%) TM182-HIK1 Gal-Ura-Leu medium: control medium
Method: Similarly, the transformed budding yeast TM182-HIK1 prepared in Example 8 was cultured at 30° C. for 24 hours in a Glu-Ura-Leu medium. The absorbance at 600 nm of a cell suspension of the grown transformed budding yeast was measured, and a cell suspension diluted with each medium to the absorbance of 0.1 was prepared. Further, a cell suspension in which the aforementioned cell suspension of the transformed budding yeast TM182-HIK1 was diluted 50-fold with a Glu-Ura-Leu medium and, as a control, a cell suspension in which the suspension was diluted 50-fold with a […] prepared. A suspension in which each of Compounds (1) to (3) was dissolved in dimethylsulfoxide (DMSO) to the concentration of 200 ppm, a solution in which each of Compounds (4) and (5) was dissolved in dimethylsulfoxide (DMSO) to the concentration of 600 ppm, and a solution in which each of Compounds (6) and (7) was dissolved in dimethylsulfoxide (DMSO) to the concentration of 20 ppm were prepared, and two microplates were prepared in which each 1.0 μL per well of the Compound DMSO solution and DMSO as a control were dispensed into two wells. In one microplate among them, each 100 μL of cell suspensions of the transformed budding yeast TM182-HIK1 which had been prepared by dilution with a Glu-Ura-Leu medium as described above was dispensed, and cultured by allowing to stand at 30° C. for 27 hours. In another microplate; as described above, as a control, each 100 μL of cell suspensions of the transformed budding yeast TM182-HIK1 which had been prepared by dilution with a Gal-Ura-Leu medium was dispensed, and cultured by allowing to stand at 30° C. for 27 hours. After culturing, the absorbance at 600 nm of each well was measured with a microplate reader.
(§1) Degree of growths of both of the transformed budding yeasts cultured in the presence of Compounds (1) to (7) and budding yeast as a control therefor are shown in Table 3. Degrees of growths of both of the transformed budding yeasts and budding yeast as a control thereof or are shown by a relative value in percentage, letting the absorbance of 600 nm at the concentration of the Compound of 0 ppm to be […]. It was confirmed that an inhibiting degree of growth of TM182-HIK1 by each test substance was greater than an inhibiting degree of growth of AH22-HIK1 by each test substance, and the TM182-HIK1 was a transformed cell with the enhanced sensitivity to an antifungal-compound as compared with AH22-HIK1.

AH22 strain [2] = assay: Antifungal compound sensitivity test, control yeast AH22 strain (Example 9); settings: 30° C. 27 hours
Method: (§2) The transformed budding yeast AH22-HIK1 prepared in Example 8 was cultured while shaking at 30° C. for 24 hours in a Glu-Leu medium. As a control, the AH22 strain was similarly cultured while shaking at 30° C. for 24 hours in a Glu medium. The absorbance at 600 nm of a cell suspension of each of the grown transformed budding yeasts was measured, and a cell suspension diluted with each medium to the absorbance of 0.1 was prepared. Further, a cell suspension in which the aforementioned cell suspension of the transformed budding yeast AH22-HIK1 was diluted 50-fold with a Glu-Leu medium, and a cell suspension in which the aforementioned cell suspension of AH22 strain was diluted 50-fold with a Glu medium were prepared. A suspension in which each of compounds (1) to (3) was dissolved in dimethylsulfoxide (DMSO) to the concentration of 200 ppm, a solution in which each of Compounds (4) to (5) was dissolved in dimethylsulfoxide (DMSO) to the concentration of 600 ppm, and a solution in which each of Compounds (6) and (7) was dissolved in dimethylsulfoxide (DMSO) to the concentration of 20 ppm were prepared, and two microplates were prepared in which each 1.0 μL per well of the Compound solution and DMSO as a control were dispensed into two wells. In one microplate among them, each 100 μL of a cell suspension of the transformed budding yeast AH22-hiki which had been prepared by dilution as described above was dispensed, and cultured by allowing to stand at 30° C. for 23 hours. In another microplate, each 100 μL of the cell suspensions of control yeast AH22 strain which had been prepared by dilution as described above was dispensed, and cultured by allowing to stand at 30° C. for 27 hours. After culturing, the absorbance at 600 nm of each well was measured with a microplate reader.
as §1

[3] = system: transformed budding yeast AH22-HIK1; assay: Antifungal compound sensitivity test, transformed budding yeast AH22-HIK1 (Example 9); settings: 30° C. 23 hours
Method: as §2, §1

AH22 strain [4] = assay: Antifungal compound sensitivity test, control yeast AH22 strain (Example 16); settings: 30° C. 24.5 hours, relative value in percentage
Method: The transformed budding yeast AH22-StOS1 prepared in Example 15 was cultured while shaking at 30° C. for 18 hours in a Glu-Leu medium. As a control, the AH22 strain was similarly cultured while shaking at 30° C. for 18 hours in a Glu medium. The absorbance at 600 nm of each grown transformed budding yeast in a cell suspension was measured, and cell suspension diluted with sterilized distilled water to the absorbance of 0.1 was prepared. Further, a cell suspension in which the aforementioned cell suspension of the transformed budding yeast AH22-StOS1 was diluted 50-fold with a Glu-Leu medium, and a cell suspension in which the aforementioned cell suspension of the AH22 strain was diluted 50-fold with a Glu medium were prepared.
A solution in which each of Compounds (1) to (3) was dissolved in dimethylsulfoxide (DMSO) to the concentration of 6 ppm, a solution in which each of Compounds (4) and (5) was dissolved in dimethylsulfoxide (DMSO) to the concentration of 2000 ppm, and a solution in which Compounds (6) and (7) was dissolved in dimethylsulfoxide (DMSO) to the concentration of 20 ppm were prepared, and two microplates were prepared in which each 1.0 μL per well of the Compound solution and DMSO as a control were dispensed. In one microplate among them, each 100 μL of cell suspensions of the transformed budding yeast AH22-StOS1 which had been prepared by dilution as described above was dispensed, and cultured by allowing to stand at 30° C. for 28 hours. In another microplate, each 100 μL of cell suspensions of the control yeast AH22 strain which had been prepared by dilution as described above was dispensed, and cultured by allowing to stand at 30° C. for 24.5 hours. After culturing, the absorbance at 600 nm of each well was measured with a microplate reader.
A degree of growth of the transformed budding yeast is expressed as a relative value in percentage, letting the absorbance at 600 nm at the concentration of the Compound of 0 ppm to be 100. It was confirmed that an inhibiting degree of growth of the transformed budding yeast TM182-StOS1 by each test substance was grater than an inhibiting degree of growth of the transformed budding yeast AH22-StOS1 by each test substance, and the transformed budding yeast TM182-StOS1 was a transformed cell with the enhanced sensitivity to an antifungal compound as compared with the transformed budding yeast AH22-StOS1.

COP(=S)(OC)Oc1c(Cl)cc(C)cc1Cl [Compound (5), Tolclofos-methyl]
Degree of growth of budding yeast (%) TM182-HIK1 Gal-Ura-Leu medium ([1]; final concentration 6.0 ppm): 106% | Degree of growth of budding yeast (%) TM182-HIK1 Glu-Ura-Leu medium ([1]; final concentration 6.0 ppm): 22% | Degree of growth of budding yeast (%) AH22 Glu medium (AH22 strain [2]; final concentration 6.0 ppm): 93% | Degree of growth of budding yeast (%) AH22-HIK1 Glu-Leu medium ([3]; final concentration 6.0 ppm): 99% | Degree of growth of budding yeast AH22 Glu medium (AH22 strain [4]; final concentration 20 ppm): 80%

O=[N+]([O-])c1c(Cl)c(Cl)c(Cl)c(Cl)c1Cl [Compound (4), Quintozene]
Degree of growth of budding yeast (%) TM182-HIK1 Gal-Ura-Leu medium ([1]; final concentration 6.0 ppm): 97% | Degree of growth of budding yeast (%) TM182-HIK1 Glu-Ura-Leu medium ([1]; final concentration 6.0 ppm): 63% | Degree of growth of budding yeast (%) AH22 Glu medium (AH22 strain [2]; final concentration 6.0 ppm): 97% | Degree of growth of budding yeast (%) AH22-HIK1 Glu-Leu medium ([3]; final concentration 6.0 ppm): 92% | Degree of growth of budding yeast AH22 Glu medium (AH22 strain [4]; final concentration 20 ppm): 96%

N#Cc1c[nH]cc1-c1cccc(Cl)c1Cl [Compound (7), Fenpiclonil]
Degree of growth of budding yeast (%) TM182-HIK1 Gal-Ura-Leu medium ([1]; final concentration 0.2 ppm): 87% | Degree of growth of budding yeast (%) TM182-HIK1 Glu-Ura-Leu medium ([1]; final concentration 0.2 ppm): 9% | Degree of growth of budding yeast (%) AH22 Glu medium (AH22 strain [2]; final concentration 0.2 ppm): 89% | Degree of growth of budding yeast (%) AH22-HIK1 Glu-Leu medium ([3]; final concentration 0.2 ppm): 102% | Degree of growth of budding yeast AH22 Glu medium (AH22 strain [4]; final concentration 0.2 ppm): 91%

N#Cc1c[nH]cc1-c1cccc2c1OC(F)(F)O2 [Compound (6), Fludioxonil]
Degree of growth of budding yeast (%) TM182-HIK1 Gal-Ura-Leu medium ([1]; final concentration 0.2 ppm): 104% | Degree of growth of budding yeast (%) TM182-HIK1 Glu-Ura-Leu medium ([1]; final concentration 0.2 ppm): 11% | Degree of growth of budding yeast (%) AH22 Glu medium (AH22 strain [2]; final concentration 0.2 ppm): 101% | Degree of growth of budding yeast (%) AH22-HIK1 Glu-Leu medium ([3]; final concentration 0.2 ppm): 98% | Degree of growth of budding yeast AH22 Glu medium (AH22 strain [4]; final concentration 0.2 ppm): 92%

C=CC1(C)OC(=O)N(c2cc(Cl)cc(Cl)c2)C1=O (centres unmarked) [Compound (3), Vinclozolin]
Degree of growth of budding yeast (%) TM182-HIK1 Gal-Ura-Leu medium ([1]; final concentration 2.0 ppm): 100% | Degree of growth of budding yeast (%) TM182-HIK1 Glu-Ura-Leu medium ([1]; final concentration 2.0 ppm): 30% | Degree of growth of budding yeast (%) AH22 Glu medium (AH22 strain [2]; final concentration 2.0 ppm): 99% | Degree of growth of budding yeast (%) AH22-HIK1 Glu-Leu medium ([3]; final concentration 2.0 ppm): 104% | Degree of growth of budding yeast AH22 Glu medium (AH22 strain [4]; final concentration 0.6 ppm): 96%

CC(C)NC(=O)N1CC(=O)N(c2cc(Cl)cc(Cl)c2)C1=O [Compound (2), Iprodione]
Degree of growth of budding yeast (%) TM182-HIK1 Gal-Ura-Leu medium ([1]; final concentration 2.0 ppm): 94% | Degree of growth of budding yeast (%) TM182-HIK1 Glu-Ura-Leu medium ([1]; final concentration 2.0 ppm): 79% | Degree of growth of budding yeast (%) AH22 Glu medium (AH22 strain [2]; final concentration 2.0 ppm): 96% | Degree of growth of budding yeast (%) AH22-HIK1 Glu-Leu medium ([3]; final concentration 2.0 ppm): 84% | Degree of growth of budding yeast AH22 Glu medium (AH22 strain [4]; final concentration 0.6 ppm): 94%

CC12CC1(C)C(=O)N(c1cc(Cl)cc(Cl)c1)C2=O (centres unmarked) [Compound (1), Procymidone]
Degree of growth of budding yeast (%) TM182-HIK1 Gal-Ura-Leu medium ([1]; final concentration 2.0 ppm): 100% | Degree of growth of budding yeast (%) TM182-HIK1 Glu-Ura-Leu medium ([1]; final concentration 2.0 ppm): 62% | Degree of growth of budding yeast (%) AH22 Glu medium (AH22 strain [2]; final concentration 2.0 ppm): 85% | Degree of growth of budding yeast (%) AH22-HIK1 Glu-Leu medium ([3]; final concentration 2.0 ppm): 89% | Degree of growth of budding yeast AH22 Glu medium (AH22 strain [4]; final concentration 0.6 ppm): 99%
